Read-outs that look alike come from different tables or passages of the source.
System: 134 cancer cell lines
Test: Cell viability assay (ATPlite, 72 hours), IC50 on cancer cell line panel

Compound: CCN1CCN(c2ccc(Nc3cc(N(C)C(=O)Nc4c(Cl)c(OC)cc(OC)c4Cl)ncn3)cc2)CC1 [infigratinib]
- IC50 (HEC-6, read-out: IC50 in cell proliferation assay, HEC-6 cell line (EGFR p.A289V)): > 3.16 µM
- IC50 (Homo sapiens, 769-P, read-out: IC50 in cell proliferation assay, cell line 769-P): > 3.16 µM
- IC50 (Homo sapiens, 786-0, read-out: IC50 in cell proliferation assay, cell line 786-O): > 3.16 µM
- IC50 (Homo sapiens, A 172, read-out: IC50 in cell proliferation assay, cell line A-172): 0.041 µM
- IC50 (Homo sapiens, A204, read-out: IC50 in cell proliferation assay, cell line A-204): 0.063 µM
- IC50 (Homo sapiens, A498, read-out: IC50 in cell proliferation assay, cell line A-498): 2.97 µM
- IC50 (Homo sapiens, A549, read-out: IC50 in cell proliferation assay, cell line A-549): > 3.16 µM
- IC50 (Homo sapiens, A704, read-out: IC50 in cell proliferation assay, cell line A-704): > 3.16 µM
- IC50 (Homo sapiens, A-375, read-out: IC50 in cell proliferation assay, cell line A-375 (BRAF p.V600E)): > 3.16 µM
- IC50 (Homo sapiens, A-427, read-out: IC50 in cell proliferation assay, cell line A-427): 1.79 µM
- IC50 (Homo sapiens, ACHN, read-out: IC50 in cell proliferation assay, cell line ACHN): 2.75 µM
- IC50 (Homo sapiens, AN3-CA, read-out: IC50 in cell proliferation assay, cell line AN3-CA (FGFR2 p.N549K)): 0.203 µM
- IC50 (Homo sapiens, ASPC1, read-out: IC50 in cell proliferation assay, cell line AsPC-1): > 3.16 µM
- IC50 (Homo sapiens, AU565, read-out: IC50 in cell proliferation assay, cell line AU565 (ERBB2 amplification)): > 3.16 µM
- IC50 (Homo sapiens, BT-20, read-out: IC50 in cell proliferation assay, cell line BT-20): > 3.16 µM
- IC50 (Homo sapiens, BT-474, read-out: IC50 in cell proliferation assay, cell line BT-474 (ERBB2 amplification)): > 3.16 µM
- IC50 (Homo sapiens, BT-549, read-out: IC50 in cell proliferation assay, cell line BT-549): > 3.16 µM
- IC50 (Homo sapiens, BXPC-3, read-out: IC50 in cell proliferation assay, cell line BxPC-3): > 3.16 µM
- IC50 (Homo sapiens, C-33-A, read-out: IC50 in cell proliferation assay, cell line C-33 A): > 3.16 µM
- IC50 (Homo sapiens, CAL-27, read-out: IC50 in cell proliferation assay, cell line CAL-27): > 3.16 µM
- IC50 (Homo sapiens, CCF-STTG1, read-out: IC50 in cell proliferation assay, cell line CCF-STTG1): > 3.16 µM
- IC50 (Homo sapiens, CCRF-CEM, read-out: IC50 in cell proliferation assay, cell line CCRF-CEM): > 3.16 µM
- IC50 (Homo sapiens, COLO 205, read-out: IC50 in cell proliferation assay, cell line COLO 205 (BRAF p.V600E)): > 3.16 µM
- IC50 (Homo sapiens, COLO-829, read-out: IC50 in cell proliferation assay, cell line COLO 829 (BRAF p.V600E)): > 3.16 µM
- IC50 (Homo sapiens, DLD-1, read-out: IC50 in cell proliferation assay, cell line DLD-1): > 3.16 µM
- IC50 (Homo sapiens, DU-4475, read-out: IC50 in cell proliferation assay, cell line DU4475 (BRAF p.V600E)): > 3.16 µM
- IC50 (Homo sapiens, Daoy, read-out: IC50 in cell proliferation assay, cell line Daoy): > 3.16 µM
- IC50 (Homo sapiens, DoTc2-4510, read-out: IC50 in cell proliferation assay, cell line DoTc2 4510): > 3.16 µM
- IC50 (Homo sapiens, FaDu, read-out: IC50 in cell proliferation assay, cell line FaDu): > 3.16 µM
- IC50 (Homo sapiens, G-361, read-out: IC50 in cell proliferation assay, cell line G-361 (BRAF p.V600E)): > 3.16 µM
- IC50 (Homo sapiens, HCC827, read-out: IC50 in cell proliferation assay, cell line HCC827 (EGFR exon19del)): 5 µM
- IC50 (Homo sapiens, HCC4006, read-out: IC50 in cell proliferation assay, cell line HCC4006 (EGFR exon19del)): 6.22 µM
- IC50 (Homo sapiens, HCT-15, read-out: IC50 in cell proliferation assay, cell line HCT 15): > 3.16 µM
- IC50 (Homo sapiens, HCT-116, read-out: IC50 in cell proliferation assay, cell line HCT 116): > 3.16 µM
- IC50 (Homo sapiens, HEC-1, read-out: IC50 in cell proliferation assay, HEC-1 cell line): 3.04 µM
- IC50 (Homo sapiens, HEC-1B, read-out: IC50 in cell proliferation assay, HEC-1-B cell line (EGFR p.A864V)): > 3.16 µM
- IC50 (Homo sapiens, HL-60, read-out: IC50 in cell proliferation assay, HL-60 cell line): > 3.16 µM
- IC50 (Homo sapiens, HT, read-out: IC50 in cell proliferation assay, HT cell line): > 3.16 µM
- IC50 (Homo sapiens, HT-1080, read-out: IC50 in cell proliferation assay, HT-1080 cell line): 2.99 µM
- IC50 (Homo sapiens, Hs-578T, read-out: IC50 in cell proliferation assay, Hs 578T cell line): > 3.16 µM
- IC50 (Homo sapiens, HuTu80, read-out: IC50 in cell proliferation assay, HuTu 80 cell line): 0.039 µM
- IC50 (Homo sapiens, J82, read-out: IC50 in cell proliferation assay, J82 cell line): > 3.16 µM
- IC50 (Homo sapiens, Jurkat E6.1, read-out: IC50 in cell proliferation assay, Jurkat E6.1 cell line): > 3.16 µM
- IC50 (Homo sapiens, K562, read-out: IC50 in cell proliferation assay, K-562 cell line): > 3.16 µM
- IC50 (Homo sapiens, KATO III, read-out: IC50 in cell proliferation assay, KATO III cell line (FGFR2 amplification)): 0.008 µM
- IC50 (Homo sapiens, KG-1, read-out: IC50 in cell proliferation assay, KG-1 cell line (FGFR1OP2-FGFR1)): 0.00229 µM
- IC50 (Homo sapiens, KLE, read-out: IC50 in cell proliferation assay, KLE cell line): > 3.16 µM
- IC50 (Homo sapiens, KMS-11, read-out: IC50 in cell proliferation assay, KMS-11 cell line (FGFR3 p.Y373C)): 0.026 µM
- IC50 (Homo sapiens, KU812, read-out: IC50 in cell proliferation assay, Ku812 cell line): > 3.16 µM
- IC50 (Homo sapiens, Kasumi 1, read-out: IC50 in cell proliferation assay, Kasumi-1 cell line (KIT p.N822K)): 3.42 µM
- IC50 (Homo sapiens, LC-2-ad, read-out: IC50 in cell proliferation assay, LC-2/ad cell line (CCDC6-RET)): 3.45 µM
- IC50 (Homo sapiens, LNCaP-Clone-FGC, read-out: IC50 in cell proliferation assay, LNCaP clone FGC cell line): > 3.16 µM
- IC50 (Homo sapiens, LS174T, read-out: IC50 in cell proliferation assay, LS174T cell line): > 3.16 µM
- IC50 (Homo sapiens, LS-411N, read-out: IC50 in cell proliferation assay, LS411N cell line (BRAF p.V600E)): > 3.16 µM
- IC50 (Homo sapiens, LoVo, read-out: IC50 in cell proliferation assay, LoVo cell line): > 3.16 µM
- IC50 (Homo sapiens, MCF7, read-out: IC50 in cell proliferation assay, MCF-7 cell line): > 3.16 µM
- IC50 (Homo sapiens, MDA-MB-231, read-out: IC50 in cell proliferation assay, MDA-MB-231 cell line): > 3.16 µM
- IC50 (Homo sapiens, MDA-MB-453, read-out: IC50 in cell proliferation assay, MDA-MB-453 cell line): 0.655 µM
- IC50 (Homo sapiens, MDA-MB-468, read-out: IC50 in cell proliferation assay, MDA-MB-468 cell line): > 3.16 µM
- IC50 (Homo sapiens, MG-63, read-out: IC50 in cell proliferation assay, MG-63 cell line): 0.189 µM
- IC50 (Homo sapiens, MIA PaCa-2, read-out: IC50 in cell proliferation assay, MIA PaCa-2 cell line): > 3.16 µM
- IC50 (Homo sapiens, MKN-45, read-out: IC50 in cell proliferation assay, MKN45 cell line (MET amplification)): 4.26 µM
- IC50 (Homo sapiens, MOLM-13, read-out: IC50 in cell proliferation assay, MOLM-13 cell line (FLT3 ITD)): 3.99 µM
- IC50 (Homo sapiens, MOLT-4, read-out: IC50 in cell proliferation assay, MOLT-4 cell line): > 3.16 µM
- IC50 (Homo sapiens, MV4-11, read-out: IC50 in cell proliferation assay, MV4-11 cell line (FLT3 ITD)): 2.57 µM
